Measurements reported in the supplement of paper PMC10307832.

Experiments:
Test in all cases: relative viability (nuclei count vs DMSO), 5 days (fraction); higher = more cells survive
[1] = compound: CC1=C(C(=NN1)C)CC2=C(C3=C(S2)N(C(=O)N(C3=O)C)CC(C)C)C(=O)N4C[C@@H](CO4)O + Nc1ncn([C@H]2C[C@H](O)[C@@H](CO)O2)c(=O)n1 [Decitabine] (partner 2 µM)
Method in brief: (§1)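 Cells from lung cancer lines were seeded into 1536-well plates and, one day later, dosed by pin tool. Treatments were either a single drug or a fixed dose of an anchor drug with five library-drug doses (not always all listed) in √10 steps. After 5 days, nuclei were stained in a one-step fixation (final 0.05% Triton X-100, 1% formaldehyde, 1 ug/ml Hoechst) and counted on 4× images, and relative viability is the treated-to-vehicle nuclei ratio, as the median of duplicate plates.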

[2] = compound: Cc1ccccc1C(C(=O)NC1CCCCC1)N(C(=O)Cn1ccnc1C)c1cccc(F)c1 [IDH-C35] + COc1cccc2cc(-c3nc([C@H]4CC[C@H](C(=O)O)CC4)n4ncnc(N)c34)[nH]c12 [OSI-027] (partner 0.5 µM)
Method in brief: as §1

[3] = compound: CC1=C(C(=NN1)C)CC2=C(C3=C(S2)N(C(=O)N(C3=O)C)CC(C)C)C(=O)N4C[C@@H](CO4)O + C[C@@H](Oc1cc(-c2cnn(C3CCNCC3)c2)cnc1N)c1c(Cl)ccc(F)c1Cl [Crizotinib] (partner 1 µM)
Method in brief: as §1

[4] = compound: CC1=C(C(=NN1)C)CC2=C(C3=C(S2)N(C(=O)N(C3=O)C)CC(C)C)C(=O)N4C[C@@H](CO4)O + COc1cccc2cc(-c3nc([C@H]4CC[C@H](C(=O)O)CC4)n4ncnc(N)c34)[nH]c12 [OSI-027] (partner 0.5 µM)
Method in brief: as §1

Row | Cell Line | relative viability ([1]; first compound 0.0025 µM) | relative viability ([1]; first compound 0.007906 µM) | relative viability ([1]; first compound 0.025 µM) | relative viability ([1]; first compound 0.07906 µM) | relative viability ([1]; first compound 0.25 µM) | relative viability ([2]; first compound 0.08 µM) | relative viability ([2]; first compound 0.253 µM) | relative viability ([2]; first compound 0.8 µM) | relative viability ([2]; first compound 2.53 µM) | relative viability ([2]; first compound 8 µM) | relative viability ([3]; first compound 0.0025 µM) | relative viability ([3]; first compound 0.007906 µM) | relative viability ([3]; first compound 0.025 µM) | relative viability ([3]; first compound 0.07906 µM) | relative viability ([3]; first compound 0.25 µM) | relative viability ([4]; first compound 0.0025 µM) | relative viability ([4]; first compound 0.007906 µM) | relative viability ([4]; first compound 0.025 µM) | relative viability ([4]; first compound 0.07906 µM) | relative viability ([4]; first compound 0.25 µM)
1 | A-427 | 0.592 | 0.576 | 0.623 | 0.605 | 0.604 | 0.477 | 0.49 | 0.463 | 0.471 | 0.448 | 0.904 | 0.953 | 0.879 | 0.917 | 1.13 | 0.444 | 0.569 | 0.425 | 0.549 | 0.477
2 | NCI-H2347 | 0.638 | 0.649 | 0.608 | 0.56 | 0.662 | 0.467 | 0.48 | 0.477 | 0.324 | 0.369 | 0.834 | 0.813 | 0.801 | 0.621 | 0.875 | 0.472 | 0.496 | 0.444 | 0.331 | 0.354
3 | NCI-H1355 | 0.443 | 0.375 | 0.346 | 0.324 | 0.332 | 0.422 | 0.445 | 0.382 | 0.466 | 0.395 | 1.07 | 1.09 | 1.09 | 1.05 | 1.14 | 0.458 | 0.441 | 0.425 | 0.464 | 0.39
4 | NCI-H358 | 0.198 | 0.237 | 0.208 | 0.204 | 0.217 | 0.776 | 0.757 | 0.698 | 0.775 | 0.756 | 0.639 | 0.543 | 0.566 | 0.66 | 0.7 | 0.679 | 0.724 | 0.845 | 0.895 | 0.854
